Experimental data published in paper PMC13071878, “Yeast Display Technology Enables Rapid Discovery of Low-Nanomolar Macrocyclic Peptide Inhibitors of Human Angiotensin-Converting Enzyme 2” (Journal of Medicinal Chemistry, 2026).

How the values were obtained:
hACE2 [1] = target: T1, hACE2 (Homo sapiens, UniProt Q9BYF1); experiment: Grating-coupled interferometry of synthetic MPs on immobilized hACE2; assay type: binding; conditions: synthetic MP, immobilized hACE2, 25 °C, pH 7.4, n = 1; read-out: KD (GCI)
T1 sequence (Q9BYF1 19-615): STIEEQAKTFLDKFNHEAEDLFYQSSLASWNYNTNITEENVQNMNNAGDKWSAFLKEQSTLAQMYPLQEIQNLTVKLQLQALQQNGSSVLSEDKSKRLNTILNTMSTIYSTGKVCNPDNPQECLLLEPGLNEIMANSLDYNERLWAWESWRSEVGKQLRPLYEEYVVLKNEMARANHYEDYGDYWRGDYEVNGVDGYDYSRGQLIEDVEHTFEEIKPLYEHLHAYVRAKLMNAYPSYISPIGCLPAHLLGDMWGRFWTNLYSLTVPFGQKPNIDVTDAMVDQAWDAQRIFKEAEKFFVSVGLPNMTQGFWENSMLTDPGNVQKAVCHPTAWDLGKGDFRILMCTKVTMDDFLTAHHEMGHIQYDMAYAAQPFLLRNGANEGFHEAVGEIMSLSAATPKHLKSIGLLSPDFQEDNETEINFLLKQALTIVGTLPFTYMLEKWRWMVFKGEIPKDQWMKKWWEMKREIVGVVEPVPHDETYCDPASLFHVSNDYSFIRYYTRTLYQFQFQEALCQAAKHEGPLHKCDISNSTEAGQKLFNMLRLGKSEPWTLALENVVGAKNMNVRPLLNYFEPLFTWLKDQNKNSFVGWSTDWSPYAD
Method: Measurements were performed using a Creoptix WAVEsystem and a 4PCH-STA WAVEchip (Creoptix, Malvern Panalytical, Malvern, UK). Prior to immobilization, all four flow channels were conditioned with 100 mM sodium borate, 1 M NaCl buffer pH 9.0, for 180 s at 10 μL/min, followed by three start-up cycles (3 cycles of 60 s at 10 μL/min) in running buffer (1X PBS pH 7.4 supplemented with 0.005% v/v Tween-20). Biotinylated hACE2 (10 μg/mL in running buffer) was captured on the chip surface with a 420 s injection cycle at 10 μL/min, achieving a target immobilization level of approximately 1000 pg/mm^2 surface mass per flow cell. Excess of unbound hACE2 was removed by washing with running buffer for 60 s at 10 μL/min. Binding experiments were conducted using regeneration-free kinetics (RFK). Seven serial 2-fold dilutions of each synthetic MP (2.5, 5, 10, 20, 40, 80, and 160 nM in running buffer) were injected at 25 °C with a continuous flow rate of 60 μL/min. Each MP concentration was allowed to associate for 60 s and dissociate for 45 s, with a final dissociation phase of 300 s monitored after the highest concentration. Response signals were double-referenced by subtracting the signal from an unmodified reference channel (untreated flow cell without hACE2 protein) and the signal from blank buffer injections to correct for bulk refractive index changes and systematic artifacts.

hACE2 [2] = target: T1, hACE2; experiment: biochemical
Method: The activity assay was performed by incubating 0.25 nM of hACE2 with 50 μM fluorogenic substrate Mca-Ala-Pro-Lys­(Dnp)–OH (MedChemExpress, Monmouth Junction, NJ, USA) and 3-fold MP dilutions (ranging from 0.03 nM to 100 μM). […] All reagents were diluted in 10 mM Tris–HCl, pH 7.4, 300 mM NaCl, 100 μM ZnCl2, 0.1% w/v BSA, and 0.1% v/v DMSO assay buffer. The measurements were performed on a Berthold TriStar LB 941 microplate reader (Berthold Technologies, Bad Wildbad, Germany) using flat-bottom 96-well half area Corning Costar plates (Corning, New York, USA). The enzymatic reactions were performed at 25 °C for 90 min, under shaking with a maximum excitation wavelength (λex) of 320 nm and maximum emission wavelength (λem) of 405 nm. The initial velocities were monitored as changes in fluorescence intensity. Half-maximum inhibitory concentration (IC50) values were determined using GraphPad Prism v8.2.1 software (GraphPad software Inc., San Diego, CA, USA). […] Fluorescence was recorded as described earlier (λex = 320 nm, λem = 405 nm) using a Berthold TriStar LB 941 microplate reader (Berthold Technologies, Bad Wildbad, Germany). Initial velocities (V 0) were plotted against substrate concentrations [S] and analyzed via nonlinear regression using a one-site specific binding model using GraphPad Prism v8.2.1 software (GraphPad software Inc., San Diego, CA, USA). […]

hACE2 [3] = target: T1, hACE2; experiment: Isothermal titration calorimetry of synthetic MPs with hACE2; assay type: binding; conditions: 25 °C
Method: Isothermal titration calorimetry (ITC) experiments were performed at 25 °C using a MicroCal iTC200 instrument ([…], Malvern Panalytical, Malvern, UK). The hACE2 protein (initial stock 11 mg/mL, 20 mM Tris pH 7.4, 200 mM NaCl) was diluted into the assay buffer (100 mM Tris pH 7.4, 200 mM NaCl) to a final concentration of 5 μM. […] Titrations consisted of an initial 0.4 μL injection (excluded from subsequent data analysis), followed by 18 injections of 2 μL each, with a stirring rate of 750 rpm to ensure rapid mixing. A 120 s interval was maintained between injections to ensure the baseline returned to equilibrium. Blank experiments involving the titration of the synthetic MPs into the assay buffer were performed to determine and subtract the heats of dilution. Data processing was conducted using the Origin software package version 7 (OriginLab Corporation, Northampton, MA, USA). The integrated heat signals were fitted to a single-site binding model to determine the association constant (K A), the dissociation constant ([…]), the enthalpy change (ΔH), and the binding stoichiometry (n). The Gibbs free energy (ΔG) and the entropy change (ΔS) were calculated using the standard thermodynamic relationship: ΔG=ΔH−TΔS=−RTln(KA)

hACE1 = target: T2, hACE1 (Homo sapiens, UniProt P12821); experiment: biochemical
T2 construct: purchased R&D Systems
T2 sequence (P12821 30-1306): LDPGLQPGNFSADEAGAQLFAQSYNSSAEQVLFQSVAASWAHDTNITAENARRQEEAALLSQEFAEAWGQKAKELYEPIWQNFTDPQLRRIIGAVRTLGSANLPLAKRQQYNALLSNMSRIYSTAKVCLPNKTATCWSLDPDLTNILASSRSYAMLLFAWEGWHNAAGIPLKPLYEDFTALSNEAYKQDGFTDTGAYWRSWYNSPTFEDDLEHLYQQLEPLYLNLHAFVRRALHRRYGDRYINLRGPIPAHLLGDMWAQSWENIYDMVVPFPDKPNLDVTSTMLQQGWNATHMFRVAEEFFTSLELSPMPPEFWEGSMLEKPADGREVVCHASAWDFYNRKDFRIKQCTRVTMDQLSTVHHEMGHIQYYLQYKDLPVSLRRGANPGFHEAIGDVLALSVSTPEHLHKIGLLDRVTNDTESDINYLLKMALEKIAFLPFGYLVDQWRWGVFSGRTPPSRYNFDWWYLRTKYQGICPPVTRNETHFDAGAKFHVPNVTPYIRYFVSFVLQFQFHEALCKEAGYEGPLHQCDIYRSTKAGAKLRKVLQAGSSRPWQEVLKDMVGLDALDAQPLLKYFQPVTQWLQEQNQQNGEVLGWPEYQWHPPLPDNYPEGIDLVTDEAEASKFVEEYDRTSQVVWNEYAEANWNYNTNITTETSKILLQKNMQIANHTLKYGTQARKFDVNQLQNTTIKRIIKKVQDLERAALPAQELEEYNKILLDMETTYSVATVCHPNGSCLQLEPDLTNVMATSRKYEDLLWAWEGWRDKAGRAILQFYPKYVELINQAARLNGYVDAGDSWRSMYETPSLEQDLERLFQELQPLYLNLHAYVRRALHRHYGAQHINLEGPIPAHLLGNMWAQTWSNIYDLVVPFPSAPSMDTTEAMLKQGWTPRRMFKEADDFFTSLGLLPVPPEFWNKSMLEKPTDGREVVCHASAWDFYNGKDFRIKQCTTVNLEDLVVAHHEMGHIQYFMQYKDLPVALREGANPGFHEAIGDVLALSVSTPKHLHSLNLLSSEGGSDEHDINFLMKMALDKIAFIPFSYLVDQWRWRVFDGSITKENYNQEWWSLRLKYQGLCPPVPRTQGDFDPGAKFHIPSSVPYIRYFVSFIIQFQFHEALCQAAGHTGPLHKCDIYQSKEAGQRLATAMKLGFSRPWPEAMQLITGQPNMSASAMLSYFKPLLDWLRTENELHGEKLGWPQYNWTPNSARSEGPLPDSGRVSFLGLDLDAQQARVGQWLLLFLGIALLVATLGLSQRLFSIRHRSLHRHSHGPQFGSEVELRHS
Method: The activity assay was performed by incubating 0.25 nM of hACE2 with 50 μM fluorogenic substrate Mca-Ala-Pro-Lys­(Dnp)–OH (MedChemExpress, Monmouth Junction, NJ, USA) and 3-fold MP dilutions (ranging from 0.03 nM to 100 μM). […] All reagents were diluted in 10 mM Tris–HCl, pH 7.4, 300 mM NaCl, 100 μM ZnCl2, 0.1% w/v BSA, and 0.1% v/v DMSO assay buffer. The measurements were performed on a Berthold TriStar LB 941 microplate reader (Berthold Technologies, Bad Wildbad, Germany) using flat-bottom 96-well half area Corning Costar plates (Corning, New York, USA). The enzymatic reactions were performed at 25 °C for 90 min, under shaking with a maximum excitation wavelength (λex) of 320 nm and maximum emission wavelength (λem) of 405 nm. The initial velocities were monitored as changes in fluorescence intensity. Half-maximum inhibitory concentration (IC50) values were determined using GraphPad Prism v8.2.1 software (GraphPad software Inc., San Diego, CA, USA). […] Reactions were initiated by adding hACE2 (final concentration 0.25 nM) to the fluorogenic substrate in assay buffer at 25 °C. Fluorescence was recorded as described earlier (λex = 320 nm, λem = 405 nm) using a Berthold TriStar LB 941 microplate reader (Berthold Technologies, Bad Wildbad, Germany). Initial velocities (V 0) were plotted against substrate concentrations [S] and analyzed via nonlinear regression using a one-site specific binding model using GraphPad Prism v8.2.1 software (GraphPad software Inc., San Diego, CA, USA). […] All reagents were diluted in 10 mM Tris-HCl, pH 7.4, 300 mM NaCl, 100 μM ZnCl2, 0.1% w/v BSA, and 0.1% v/v DMSO buffer. Measurements and data analysis were performed as mentioned above.

[4] = Plasma stability of synthetic peptides (LC-MS); conditions: 37 °C
Method: The mixtures were incubated at 37 °C in a water bath (VWR, Pennsylvania, PA, USA). At designated time points (0, 0.25, 0.5, 1, 2, 4, 8, 24, and 48 h), 100 μL aliquots were withdrawn and quenched with 100 μL of 100% v/v ACN. Following centrifugation (10 min at 15000 g, 4 °C), 100 μL of the supernatant was collected and diluted with 50 μL of solvent A (99.9% v/v H2O and 0.1% v/v FA). Samples were characterized by LC–MS using an Agilent 1260 Infinity II LC system coupled to an InfinityLab LC/MSD mass spectrometer (Agilent Technologies, Santa Clara, CA, USA). The system operated with a standard ESI source in negative ionization mode. Separation was performed on a reversed-phase Symmetry C18 column (5 μm, 150 mm × 4.6 mm, Waters, Milford, MA, USA) using a linear gradient of 10–100% solvent B over 22 min at a flow rate of 0.6 mL/min (Solvent A: 99.9% v/v H2O and 0.1% v/v FA; Solvent B: 99.9% v/v ACN and 0.1% v/v FA). Data acquisition, processing, and analysis were performed using MestReNova v.12.0.1 (Mestrelab Research, Santiago de Compostela, Spain). All samples were analyzed in duplicate (n = 2). The percentage of remaining peptide was calculated by integrating the peak areas, with the area at 0 h defined as 100%. Half-lives (t 1/2) were determined via nonlinear regression analysis using GraphPad Prism (GraphPad software Inc., San Diego, CA, USA). Data are presented as mean values ± s.d.

[5] = tested on: mouse model of induced colitis; set-up: method as in ref 26 (Byrnes et al. 2009); conditions: 300 mg/kg twice daily, citation mark lost in text, ref 26 (Byrnes et al. 2009); cited from earlier work

Compound	Kd (hACE2 [1])	Ki (hACE2 [2])	ΔH (ITC) (hACE2 [3])	-TΔS (ITC) (hACE2 [3]; calculated)	IC50 (hACE1)	Ki (hACE1)	t1/2 times longer than GR1.1 ([4]; human plasma)	t1/2 times longer than GR1.4 ([4]; human plasma)	half-life ([4]; human, plasma, plasma half-life t1/2, human plasma, 10 μM, LC-MS, n = 2)	effect on disease severity [5]
CC(C)C[C@@H]1NC(=O)[C@H](Cc2ccccc2)NC(=O)[C@@H](NC(=O)[C@H](C)N)CSSC[C@@H](C(=O)N[C@@H](CO)C(=O)NCC(N)=O)NC(=O)[C@H](Cc2c[nH]c3ccccc23)NC(=O)[C@H](CC(C)C)NC(=O)[C@H](Cc2c[nH]c3ccccc23)NC(=O)[C@@H]2CSSC[C@H](NC(=O)[C@H](CCCNC(=N)N)NC1=O)C(=O)N[C@@H](Cc1c[nH]cn1)C(=O)N[C@@H](CCCNC(=N)N)C(=O)N[C@@H](CC(=O)O)C(=O)N[C@@H](C(C)C)C(=O)N[C@@H](CCCCN)C(=O)N2 [GR3.1.2]	4.1 nM	1.5 nM	-8.15 ± 0.14 kcal/mol	-1.96 kcal/mol	> 100000 nM	> 100000 nM	1.5 times	1.3 times	8.6 h	
CC(C)C[C@H](N[C@@H](Cc1cncn1Cc1cc(Cl)cc(Cl)c1)C(=O)O)C(=O)O [MLN-4760]										reduce disease severity
